What follows are compounds tested against alanyl aminopeptidases (APN) (Homo sapiens, UniProt P15144) (assay: Inhibition of alanyl aminopeptidase enzymatic activity, fluorogenic substrate (Ala)2-rhodamine 110). Settings: Table 9, starred values = ID50; read-out: ID50 APN (values marked with *).
Type: biochemical
Method: The inhibition characteristics measured are referred to as IC-50 values or ID50 values (the latter marked with “*”) for said enzyme. The enzymatic activity was determined by means of the fluorogenic substrate/product (Ala)2-rhodamine 110.

Sequence of alanyl aminopeptidases (APN) (P15144 whole entry, species assumed): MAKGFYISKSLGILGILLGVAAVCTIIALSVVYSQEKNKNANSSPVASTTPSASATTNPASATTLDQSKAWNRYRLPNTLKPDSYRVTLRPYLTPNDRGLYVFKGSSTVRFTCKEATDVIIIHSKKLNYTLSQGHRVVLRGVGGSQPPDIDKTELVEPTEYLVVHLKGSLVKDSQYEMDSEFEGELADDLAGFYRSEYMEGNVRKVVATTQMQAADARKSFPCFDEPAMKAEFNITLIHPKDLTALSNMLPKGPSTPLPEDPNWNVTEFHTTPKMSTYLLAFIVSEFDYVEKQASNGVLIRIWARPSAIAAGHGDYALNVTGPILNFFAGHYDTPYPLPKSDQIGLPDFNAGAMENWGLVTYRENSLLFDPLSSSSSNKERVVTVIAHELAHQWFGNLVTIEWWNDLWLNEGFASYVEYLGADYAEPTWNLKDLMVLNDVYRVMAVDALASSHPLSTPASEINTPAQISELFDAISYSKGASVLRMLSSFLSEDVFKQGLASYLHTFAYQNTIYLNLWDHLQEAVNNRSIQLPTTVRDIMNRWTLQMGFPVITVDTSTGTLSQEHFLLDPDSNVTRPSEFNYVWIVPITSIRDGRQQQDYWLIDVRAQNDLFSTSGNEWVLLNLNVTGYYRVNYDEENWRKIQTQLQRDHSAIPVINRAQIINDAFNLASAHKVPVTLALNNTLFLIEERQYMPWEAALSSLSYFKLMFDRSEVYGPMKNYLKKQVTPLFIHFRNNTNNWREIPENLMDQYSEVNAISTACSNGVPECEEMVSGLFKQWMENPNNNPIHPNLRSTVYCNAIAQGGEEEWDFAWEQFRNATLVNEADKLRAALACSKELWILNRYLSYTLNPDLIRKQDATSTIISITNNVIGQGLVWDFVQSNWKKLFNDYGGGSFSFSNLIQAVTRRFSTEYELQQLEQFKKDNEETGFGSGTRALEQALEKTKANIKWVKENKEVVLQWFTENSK

| SMILES | IC50 [µM] |
| --- | --- |
| Cc1ccc(Cn2c(SCCC(=O)O)nc3c2c(=O)[nH]c(=O)n3C)cc1 [A9.100] | 53.2 |
| Cc1ccc(/C=C(\NC(=O)c2ccccc2)C(=O)NCCN2CCOCC2)o1 [A9.103] | 55 |
| O=c1cc(CSc2nnc(-c3ccco3)c(-c3ccco3)n2)c2ccccc2[nH]1 [A9.107] | 65.1 |
| Cn1c(=O)c2c(ncn2CC(=O)N/N=C/C=C\c2ccco2)n(C)c1=O [A9.113] | 79.8 |
| CCc1ccc(NC(=O)C2CCN(S(=O)(=O)c3ccc(Cl)cc3)CC2)cc1 [A9.114] | 80.4 |
| O=C(OCCN1CCCCC1)C1c2ccccc2Oc2ccccc21 [A9.117] | 94.8 |
| Cc1cccc[n+]1OC(=O)N1CCCCC1 [A9.118] | 96.7 |
| C#CCN1C(c2cnccn2)=NC(CC(C)C)C1C(=O)Nc1c(C)cccc1C (centres unmarked) [A9.119] | 103 |
| COc1c(OCC(O)C(C)(C)O)ccc2c1N=C1OC=CC1C2OC (centres unmarked) [A9.120] | 117 |
| CC(=O)Oc1ccc2c(=O)c(-c3cnn(-c4ccccc4)c3)c(C(F)(F)F)oc2c1OC(C)=O [A9.122] | 134 |
| CCCOC(=O)C(NC(=O)c1ccccc1)(N1CCOCC1)C(F)(F)F (centres unmarked) [A9.125] | 186 |
| CC(C)Oc1ccc(/C=N/CCC2(c3ccccc3)CCOC(C)(C)C2)cc1 (centres unmarked) [A9.126] | 197 |
| O=C(/C=C/c1ccco1)NCCCN1CCOCC1 [A9.127] | 208 |
| CC(C)N1CCN(Cc2ccccc2[N+](=O)[O-])CC1 [A9.128] | 252 |

Same assay, conditions: Table 9, unstarred values; read-out: IC50APN

| SMILES | IC50 [µM] |
| --- | --- |
| Cc1ccccc1NC(=O)C1C(c2cccs2)C(C#N)=C(SCC(=O)Nc2ccc(Br)cc2)NC1(C)O (centres unmarked) [A9.087] | 33.9 |
| CCOC(=O)C1=C(N)NC2=C(CCCC2)C12C(=O)Nc1ccccc12 (centres unmarked) [A9.088] | 33.6 |
| CCOC(=O)C1CCN(C(=O)/C(=C/c2ccco2)NC(=O)c2ccc(C)c(C)c2)CC1 [A9.089] | 34.5 |
| O=[N+]([O-])c1ncn(CN2CCOCC2)n1 [A9.090] | 36.8 |
| CCCOC(=O)c1cc(-c2ccc(/C=C3\C(=O)NC(=O)C(C#N)=C3C)o2)ccc1Cl [A9.091] | 36.8 |
| CC1CCN(S(=O)(=O)c2ccc3c(c2)C(Cl)(Cl)C(=O)N3)CC1 [A9.092] | 37.2 |
| CCOC(=O)c1cc(-c2ccc(/C=C3\C(=O)N(CCCO)C(=O)C(C#N)=C3C)o2)ccc1Cl [A9.094] | 41 |
| COc1cc(C)[n+](OC(=O)N(C)C)c(C)c1 [A9.095] | 42.4 |
| CC1CCN(C(=O)/C(=C\c2ccco2)NC(=O)c2ccccc2)CC1 [A9.096] | 45 |
| CSCCC(Nc1ncnc2c1oc1ccccc12)C(=O)O (centres unmarked) [A9.097] | 48.4 |
| CCOC(=O)c1cc(Br)ccc1-c1ccc(/C=C2\C(=O)N=C(O)C(C#N)=C2C)o1 [A9.098] | 49.9 |
| CCOC(=O)c1cc(-c2ccc(/C=C3/C(=O)NC(=O)C(C#N)=C3C)o2)ccc1Cl [A9.099] | 52.1 |
| CCCOC(=O)c1cc(-c2ccc(/C=C3\C(=O)N(CCO)C(=O)C(C#N)=C3C)o2)ccc1Cl [A9.101] | 54 |
| Cc1ccccc1C(=O)N1CCC(C(=O)Nc2ccc(OCc3ccccc3)cc2)CC1 [A9.102] | 54 |
| O=C(CNS(=O)(=O)c1ccc2c(c1)OCCO2)N/N=C/c1ccco1 [A9.104] | 55.6 |
| CC1(C)N=C(N)N=C(N)N1c1c(Cl)cccc1Cl [A9.105] | 59.8 |
| O=C1Nc2cc(C(=O)N3CCN(c4ccccc4)CC3)ccc2NC1CSCc1ccccc1F (centres unmarked) [A9.106] | 61.5 |
| Cc1nc(NC(C)C(=O)O)c2nc(C)oc2n1 (centres unmarked) [A9.108] | 65.8 |
| Cc1ccc(C(=O)N/C(=C\c2ccco2)C(=O)N2CCSCC2)cc1C [A9.109] | 68.9 |
| Cc1ccc(S(=O)(=O)N2CCC(C(=O)N/N=C/c3ccco3)CC2)cc1 [A9.110] | 69.3 |
| COc1ccc(/C=C2\c3ccccc3-c3ccc(C(=O)CCCCN4CCCCC4)cc32)cc1OC [A9.111] | 74.6 |
| CCc1c(C)nc2ccccc2c1SCC(=O)O [A9.112] | 77.4 |
| CCCOC(=O)C(NC(=O)c1ccc(OC)cc1)(N1CCOCC1)C(F)(F)F (centres unmarked) [A9.115] | 90.2 |
| CC1(C)CC(CC/N=C/c2ccccc2)(Cc2ccccc2)CCO1 (centres unmarked) [A9.116] | 93.6 |
| CC1=C(C#N)C(=O)N(CCO)C(=O)/C1=C\c1ccc(-c2ccc(C)c(Cl)c2)o1 [A9.121] | 125 |
| NCCCNC(=O)C1Cc2ncn(Cc3ccccc3[N+](=O)[O-])c2CN1Cc1ccccn1 (centres unmarked) [A9.123] | 138 |

Same assay, conditions: Table 10; read-out: IC50APN

| SMILES | IC50 [µM] |
| --- | --- |
| Brc1cc2c(cc1Br)OCCOCCOCCOCCOCCO2 [A10.001] | 0.7 |
| O=C(N/N=C\c1ccco1)c1ccc(S(=O)(=O)N2CCCCCC2)cc1 [A10.002] | 8 |
| COc1ccc(Cl)cc1C(=O)N/C(=C/c1ccco1)C(=O)N1CC2CC(C1)c1cccc(=O)n1C2 (centres unmarked) [A10.003] | 8.1 |
| C/C(=N/O)c1ccc2c(c1)OCCOCCOc1cc(/C(C)=N\O)ccc1OCCOCCO2 [A10.004] | 8.6 |
| Cc1ccc(C(=O)N/C(=C\c2ccco2)C(=O)N2CC3CC(C2)c2cccc(=O)n2C3)cc1 (centres unmarked) [A10.005] | 11 |
| Cc1ccc(C(=O)N/C(=C\c2ccco2)C(=O)N2CC3CC(C2)c2cccc(=O)n2C3)cc1C (centres unmarked) [A10.006] | 11.8 |
| Cc1ccc(C(=O)N/C(=C\c2ccco2)C(=O)N2CCCN(C)CC2)cc1C [A10.007] | 32.1 |
| CC1CC(=O)N(C(=O)CCBr)c2ccc([N+](=O)[O-])cc2N1C(=O)CCBr (centres unmarked) [A10.008] | 99.8 |

Same assay, conditions: Table 11; read-out: IC50APN

| SMILES | IC50 [µM] |
| --- | --- |
| N/C(=N\[N+](=O)[O-])N/N=C/c1ccco1 [A11.001] | 7.6 |
| CCN(CC)c1ccc(/C=C(\NC(=O)c2ccccc2)C(=O)N/N=C/c2ccc(O)c([N+](=O)[O-])c2)cc1 [A11.002] | 7.6 |
| O=C(Cc1ccc(Br)c2ccccc12)N/N=C/c1ccc([N+](=O)[O-])c(O)c1 [A11.003] | 7 |
| N#Cc1cc(N2CC3CC(C2)c2cccc(=O)n2C3)c([N+](=O)[O-])cc1C#N (centres unmarked) [A11.004] | 8.9 |
| O=C(N/N=C(/CC(=O)c1cccs1)C(F)(F)F)c1cccc([N+](=O)[O-])c1 [A11.005] | 10.7 |
| Cc1ccc(C)c(NC(=O)C(=O)N/N=C/c2cc([N+](=O)[O-])ccc2O)c1 [A11.006] | 10.8 |
| CC(NC(=O)C(=O)N/N=C\c1cc([N+](=O)[O-])ccc1O)c1ccccc1 (centres unmarked) [A11.007] | 11.4 |
| CN(C)CCCN1CCN(c2nc(N(C)CC(=O)O)c3ncn(Cc4ccc([N+](=O)[O-])cc4)c3n2)CC1 [A11.008] | 11.8 |
| CCN(CC)C(=O)c1cc([N+](=O)[O-])ccc1C(=O)O [A11.009] | 12.1 |
| CC(C)C/C=N/NC(=O)c1ccc([N+](=O)[O-])cc1Cl [A11.010] | 15.6 |
| O=[N+](O)CC(c1ccccc1)P(=O)(c1ccccc1)c1ccccc1 (centres unmarked) [A11.011] | 16.3 |
| O=C(Cc1ccc([N+](=O)[O-])cc1)N1CCOCC1 [A11.012] | 19.1 |
| O=C(N/N=C/c1cc([N+](=O)[O-])ccc1O)c1ccc(O)cc1O [A11.013] | 20.2 |
| CC(=O)Oc1ccc([N+](=O)[O-])cc1/C=N/NC(=O)COc1cc(C)ccc1C(C)C [A11.014] | 20.3 |
| O=C1C=CC(=O)N1c1cc([N+](=O)[O-])ccc1F [A11.015] | 20.8 |
| O=C1c2cccc3c(Br)c([N+](=O)[O-])cc(c23)C(=O)N1c1cccc([N+](=O)[O-])c1 [A11.016] | 23.3 |
| O=C(Nc1ccc(O)cc1C(=O)O)c1cccc(N2C(=O)c3cccc4c([N+](=O)[O-])ccc(c34)C2=O)c1 [A11.017] | 23.6 |
| O=C1CNC(c2cccc([N+](=O)[O-])c2)N1O (centres unmarked) [A11.018] | 26.4 |
| CCCCCCCSc1nnc2c(n1)CC(C(=O)c1ccccc1)=Nc1ccccc1-2 [A11.019] | 28.9 |
| C=CCN1C(=O)C(C#N)=C(C)/C(=C\c2ccc(-c3cc(C)c(C)cc3[N+](=O)[O-])o2)C1=O [A11.020] | 29.3 |

| SMILES | IC50 [µM] |
| --- | --- |
| O=c1[nH]cc([N+](=O)[O-])cc1C(F)(F)F [A11.021] | 29.9 |
| CCOC(=O)C(C#N)c1c([N+](=O)[O-])c(=O)n(-c2ccccc2)c2ccccc12 (centres unmarked) [A11.022] | 30 |
| O=C(CC1(O)CCCCC1)N/N=C/c1ccccc1[N+](=O)[O-] [A11.023] | 31.1 |
| CC(=O)N1CCOC1(C)c1ccc([N+](=O)[O-])cc1 (centres unmarked) [A11.024] | 32.8 |
| NCCCCCC(=O)C[N+](=O)[O-] [A11.025] | 33.2 |
| O=[N+]([O-])c1ncn(CN2CCOCC2)n1 [A11.026] | 36.8 |
| O=C(Nc1ccc(F)cc1)c1ccc([NH+]([O-])O)o1 (centres unmarked) [A11.027] | 37.4 |
| O=C(OCC1CCCO1)c1cc([N+](=O)[O-])cc([N+](=O)[O-])c1 (centres unmarked) [A11.028] | 39.3 |
| O=C(N/N=C/c1cccc([N+](=O)[O-])c1)c1ccco1 [A11.029] | 45.4 |
| O=C(C[N+](=O)[O-])c1cc2occc2[nH]1 [A11.030] | 49.5 |
| O=C(N/N=C/c1cc(Br)ccc1OC(=O)c1ccc([N+](=O)[O-])cc1)/C(=C\c1ccc2c(c1)OCO2)NC(=O)c1ccccc1 [A11.031] | 54.2 |
| O=C(CNC(=O)c1ccccc1F)N/N=C/c1ccc([N+](=O)[O-])o1 [A11.032] | 60 |
| CC1CC(=O)N(C(=O)CCBr)c2ccc([N+](=O)[O-])cc2N1C(=O)CCBr (centres unmarked) [A11.033] | 99.8 |
| O=C(Nc1ccccc1F)c1ccc([N+](=O)[O-])o1 [A11.034] | 62.4 |
| COc1cccc(C(=O)NCC(=O)N/N=C/c2ccc([N+](=O)[O-])o2)c1 [A11.035] | 222 |
| COC(=O)c1cc(C(=O)NC2CCSC2=O)cc([N+](=O)[O-])c1 (centres unmarked) [A11.036] | 238 |
| O=C(N/C(=C\c1cccc([N+](=O)[O-])c1)C(=O)N(CCO)CCO)c1ccco1 [A11.037] | 244 |
| C/C(=N\NC(=O)COc1ccc(C)cc1[NH+]([O-])O)c1ccco1 (centres unmarked) [A11.038] | 422 |
| O=C(N/N=C/c1cc(Cl)cc([N+](=O)[O-])c1O)c1ccccc1O [A11.039] | 5.8 |

Same assay, conditions: Table 12; read-out: IC50APN

| SMILES | IC50 [µM] |
| --- | --- |
| Brc1cc2c(cc1Br)OCCOCCOCCOCCOCCO2 [A12.002] | 0.7 |
| CCOC(=O)c1ccc(-c2ccc(/C=C3\C(=O)N(CCO)C(=O)C(C#N)=C3C)o2)cc1 [A12.004] | 2.7 |
